Assay results from patent publication US20240299416A1, “TREATMENT OF NF-kB-MEDIATED DISEASE” (ReveraGen BioPharma, Inc., priority 2021, published 2024).

Assays:
[1] = VBP15-004 adverse events at 24 weeks; parameters: species or system human; settings: in vivo
Source text: In certain embodiments, the symptom may be an adverse event of special interest (AESI). In this context, AESIs are prespecified based on pre-defined MedDRA search criteria for eleven AESI categories for the corticosteroid class and then further stratified into AESI of at least moderate severity. The symptoms for treating DMD with corticosteroids include, but is not limited to, behavior adverse events, blood glucose related problems, gastrointestinal symptoms, increased arterial blood pressure, immune suppression/infections, skin/hair changes, cataracts/glaucoma, cushingoid features, weight gain, bone fractures, slow growth.
The second period of 24 weeks, where all participants receive vamorolone treatment on either of the two dose levels, will continue to capture additional longer-term safety and tolerability data.

osteocalcin, P1NP, CTX = test: VBP15-004 bone turnover biomarkers; type: in vivo, human
[2] = VBP15-004 adverse events, Treatment Period 2 / cross-over; type: in vivo, human
Experimental: Subjects already on vamorolone continued on the allocated dose level. Efficacy at Week 48 was assessed by Time to Stand ([…]) velocity, 6-Minute Walk Test (6MWT), Time to Run/Walk 10 meters (TTRW) velocity, and North Star Ambulatory Assessment (NSAA). […] In contrast, the persistence of effects with vamorolone 2 mg/kg/day was less pronounced for some parameters. The safety profile was consistent for subjects who continued on the same dose of vamorolone throughout the study, with no increase in frequency or severity of adverse events being observed over time. […] In addition, vamorolone treatment at both doses reversed the growth impairment seen during prednisone treatment and was associated with fewer adverse events, including those associated with corticosteroid use.

glucocorticoid receptor = biological target: T1, glucocorticoid receptor (Homo sapiens, UniProt P04150); settings: cited from earlier work
T1 sequence (P04150 1-777): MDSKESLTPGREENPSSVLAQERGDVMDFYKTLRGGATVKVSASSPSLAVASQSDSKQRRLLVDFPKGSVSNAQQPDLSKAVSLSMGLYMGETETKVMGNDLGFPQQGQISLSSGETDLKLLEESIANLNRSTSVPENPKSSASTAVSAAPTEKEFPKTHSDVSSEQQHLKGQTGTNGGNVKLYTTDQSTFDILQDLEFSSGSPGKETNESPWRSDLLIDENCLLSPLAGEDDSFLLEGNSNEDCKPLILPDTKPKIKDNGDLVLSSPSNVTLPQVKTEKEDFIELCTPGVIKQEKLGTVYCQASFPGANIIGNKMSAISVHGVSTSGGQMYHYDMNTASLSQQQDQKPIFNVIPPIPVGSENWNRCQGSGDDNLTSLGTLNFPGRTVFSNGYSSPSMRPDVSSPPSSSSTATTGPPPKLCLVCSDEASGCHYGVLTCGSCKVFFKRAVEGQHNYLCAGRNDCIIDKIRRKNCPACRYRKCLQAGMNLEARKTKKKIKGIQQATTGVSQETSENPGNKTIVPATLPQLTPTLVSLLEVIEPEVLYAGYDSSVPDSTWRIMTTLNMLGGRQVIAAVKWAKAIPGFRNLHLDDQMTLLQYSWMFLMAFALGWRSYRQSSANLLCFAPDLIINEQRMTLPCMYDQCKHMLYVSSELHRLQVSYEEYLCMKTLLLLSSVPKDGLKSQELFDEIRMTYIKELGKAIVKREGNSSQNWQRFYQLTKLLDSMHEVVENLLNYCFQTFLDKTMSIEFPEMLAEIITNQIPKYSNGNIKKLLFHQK

[3] = biological target: T2, mineralocorticoid receptor (Homo sapiens, UniProt P08235); settings: cited from earlier work
T2 sequence (P08235 1-984): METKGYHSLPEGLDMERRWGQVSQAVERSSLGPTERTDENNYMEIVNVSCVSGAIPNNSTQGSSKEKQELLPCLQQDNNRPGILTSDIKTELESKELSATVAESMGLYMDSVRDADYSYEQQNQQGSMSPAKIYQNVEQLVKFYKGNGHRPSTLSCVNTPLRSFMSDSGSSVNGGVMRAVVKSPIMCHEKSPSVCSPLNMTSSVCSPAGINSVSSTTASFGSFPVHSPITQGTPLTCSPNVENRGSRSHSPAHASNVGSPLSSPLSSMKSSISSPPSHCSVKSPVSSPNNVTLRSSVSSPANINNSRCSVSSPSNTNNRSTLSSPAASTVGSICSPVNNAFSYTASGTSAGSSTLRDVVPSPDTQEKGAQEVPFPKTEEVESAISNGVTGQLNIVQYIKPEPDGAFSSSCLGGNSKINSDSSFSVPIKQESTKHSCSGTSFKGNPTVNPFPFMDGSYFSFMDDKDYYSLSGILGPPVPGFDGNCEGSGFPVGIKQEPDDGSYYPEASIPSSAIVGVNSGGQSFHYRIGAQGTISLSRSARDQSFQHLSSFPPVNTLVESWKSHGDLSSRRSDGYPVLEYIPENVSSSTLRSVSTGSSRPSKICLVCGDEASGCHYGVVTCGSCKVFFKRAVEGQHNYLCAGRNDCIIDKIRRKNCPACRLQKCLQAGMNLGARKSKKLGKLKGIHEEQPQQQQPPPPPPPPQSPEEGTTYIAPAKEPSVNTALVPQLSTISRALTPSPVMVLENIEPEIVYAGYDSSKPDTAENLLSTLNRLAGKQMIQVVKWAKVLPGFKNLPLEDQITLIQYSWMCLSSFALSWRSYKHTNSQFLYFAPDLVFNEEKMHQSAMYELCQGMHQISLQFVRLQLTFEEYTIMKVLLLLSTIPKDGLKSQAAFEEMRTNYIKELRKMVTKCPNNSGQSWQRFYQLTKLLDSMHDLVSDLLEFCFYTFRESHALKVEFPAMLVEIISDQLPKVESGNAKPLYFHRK

[4] = after switch from prednisone to vamorolone 6 mg/kg/day

- Osteocalcin, mean (SEM) change at Week 24 (osteocalcin, P1NP, CTX; Vamorolone 2.0 mg): 8.3 (3.1) ng/ml
- Procollagen 1 N-Terminal Propeptide (P1NP), mean (SEM) change at Week 24 (osteocalcin, P1NP, CTX; Vamorolone 2.0 mg): 48 (27) ng/mL
- Type I Collagen C-Telopeptides (CTX), mean (SEM) change at Week 24 (osteocalcin, P1NP, CTX; Vamorolone 2.0 mg): 177 (52) pg/mL
- Osteocalcin, difference vs. prednisone (osteocalcin, P1NP, CTX; Vamorolone 2.0 mg, Week 24): 23.5 ng/mL
- Procollagen 1 N-Terminal Propeptide (P1NP), difference vs. prednisone (osteocalcin, P1NP, CTX; Vamorolone 2.0 mg, Week 24): 182 ng/mL
- Type I Collagen C-Telopeptides (CTX), difference vs. prednisone (osteocalcin, P1NP, CTX; Vamorolone 2.0 mg, Week 24): 477 pg/mL
- Osteocalcin, mean (SEM) change at Week 24 (osteocalcin, P1NP, CTX; Vamorolone 6.0 mg): 1.7 (2.8) ng/ml
- Procollagen 1 N-Terminal Propeptide (P1NP), mean (SEM) change at Week 24 (osteocalcin, P1NP, CTX; Vamorolone 6.0 mg): −11 (22) ng/mL
- Type I Collagen C-Telopeptides (CTX), mean (SEM) change at Week 24 (osteocalcin, P1NP, CTX; Vamorolone 6.0 mg): 90 (44) pg/mL
- Osteocalcin, difference vs. prednisone (osteocalcin, P1NP, CTX; Vamorolone 6.0 mg, Week 24): 16.9 ng/mL
- Procollagen 1 N-Terminal Propeptide (P1NP), difference vs. prednisone (osteocalcin, P1NP, CTX; Vamorolone 6.0 mg, Week 24): 124 ng/mL
- Type I Collagen C-Telopeptides (CTX), difference vs. prednisone (osteocalcin, P1NP, CTX; Vamorolone 6.0 mg, Week 24): 390 pg/mL
- effect on bone biomarkers (osteocalcin, PINP, CTX) (osteocalcin, P1NP, CTX; Week 24, vamorolone 2.0 and 6.0 mg/kg): did not decrease bone biomarkers
SMILES: C[C@@H]1C[C@H]2[C@@H]3CCC4=CC(=O)C=C[C@]4(C)C3=CC[C@]2(C)[C@@]1(O)C(=O)CO [Vamorolone, 17α,21-dihydroxy-16α-methylpregna-1,4,9(11)-triene-3,20-dione]
- clinically relevant psychiatric events, subjects [1]: no vamorolone-treated subjects
- Aggression, any severity, F ([1]; male, human, 24 weeks): 1
- Agitation, any severity, F ([1]; male, human, 24 weeks): 1
- Anxiety, any severity, F ([1]; male, human, 24 weeks): 1
- Any Behavior AESI, moderate/severe, F ([1]; male, human, 24 weeks): 1
- Irritability, any severity, F ([1]; male, human, 24 weeks): 3
- Mood altered, any severity, F ([1]; male, human, 24 weeks): 1
- Poor quality sleep, any severity, F ([1]; male, human, 24 weeks): 1
- Psychomotor hyperactivity, any severity, F ([1]; male, human, 24 weeks): 2
- Serious adverse events, F ([1]; male, human, 24 weeks): 1
- Skin laceration, any severity, F ([1]; male, human, 24 weeks): 1
- Skin laceration, moderate/severe, F ([1]; male, human, 24 weeks): 1
- Sleep disorder, any severity, F ([1]; male, human, 24 weeks): 1
- moderate/severe behavior problems, subjects ([1]; male, human, 24 weeks): 1.7%
- serious adverse events reported during vamorolone treatment ([2]; Treatment Period 2): Three
- number of adverse events [2, 4]: 44
- number of adverse events reported as behavioral disorders [2, 4]: 6
- number of adverse events typically associated with corticosteroids [2, 4]: 16
- reduction in number of adverse events [2, 4]: 37%
- reduction in number of adverse events typically associated with corticosteroids [2, 4]: 60%
- overall safety and tolerability in clinical studies ([2]; in vivo): generally safe and well-tolerated
- binding to the glucocorticoid receptor (glucocorticoid receptor): potently binds
- activity at the mineralocorticoid receptor [3]: potent antagonist
